Experimental data taken from patent US12721840B2, “Methods of treating glioblastoma multiforme using combination therapy” (MediciNova, Inc., priority 2021, dated 2026).

Legend:
[1] = literature statement (Sanftner et al Xenobiotica 2009; Chen et al. 2002); cited from earlier work
[2] = system: GBM orthotopic tumors (SB28 cells); assay: Murine GBM model: survival of mice bearing orthotopic syngeneic SB28 tumors; format: in vivo; details: syngeneic mouse model, 20,000 SB28 cells; ibudilast 50 mg/kg, anti-PD1 25 μg/dose; 3 intraperitoneal injections 3 days apart from day 7 post-engraftment; n=10 male mice/group; control 17 days
Protocol: FIGURE depicts results from a murine glioblastoma model (ibudilast treatment in a syngeneic mouse model (20,000 SB28 cells) synergized with anti-PD1), in which mice are treated with ibudilast, an anti-PD-1 antibody, or a combination of ibudilast and an anti-PD-1 antibody. Isotype serves as negative control for the anti-PD-1 antibody and vehicle serves as negative control for ibudilast. Treatment was initiated at day 7 post-engraftment with 3 intraperitoneal injections 3 days apart; n=10 mice/group (male); median survival provided for each group, *p<0.05, **p<0.01, ***p<0.001 as assessed by log-rank (colored stars indicate comparison to each control group).
Mice bearing GBM orthotopic tumors were subjected to treatment with a PD-1 antibody in the presence or absence of ibudilast (or to ibudilast alone) and evaluated for their survival after the start of treatment. More particularly, ibudilast treatment (50 mg/kg) was performed in a syngeneic mouse model (20,000 SB28 cells) synergized with anti-PD1 (25 μg/dose). Treatment was initiated at day 7 post-engraftment with 3 intraperitoneal injections 3 days apart; n=10 mice/group (male).

SMILES: COc1ccc(C2CNC(=O)C2)cc1OC1CCCC1 (stereo not drawn) [rolipram]
- penetration into the central nervous system (CNS) [1]: poor penetration into the central nervous system

SMILES: CC(C)C(=O)c1c(C(C)C)nn2ccccc12 [Ibudilast, 3-isobutyryl-2-isopropylpyrazolo[1,5-a]pyridine]
- median survival [2]: did not impact median survival
- penetration into the central nervous system (CNS) [1]: good CNS penetration
